In PubChem BioAssay AID2060332 (Molecular Pharmacology Branch, DTP, NCI, 2025):

Test system: LG0567-F671-PDC multi-cell spheroid viability
Assay: Anticancer human tumor LG0567-F671-PDC patient-derived lung adenocarcinoma cell line growth inhibition [IpAb]
Conditions: for IC50: curve of first compound; for viability, T/C: stronger effect = lower value
Excerpt: Combinatorial screen of targeted agents with ipatasertib and abemaciclib in multi-cell type tumor spheroids
A high-throughput screen of multi-cell type tumor spheroids was designed to identify active combinations of targeted small molecules and ipatasertib or abemaciclib. Complex spheroids include a stromal component modeled by human endothelial cells (HUVEC) and fibroblasts modeled by human mesenchymal stem cells (MSCs). The concentration ranges selected for each drug and investigational agent were based upon clinically achievable concentrations if the clinical Cmax of the agent was known.
Compounds. The drugs and investigational agents: ipatasertib (NSC767898), abemaciclib(NSC768073), selumetinib (NSC741078), trametinib (758246), adavosertib (NSC754352), everolimus (NSC733504), sapanisertib (NSC764658), vemurafenib (NSC761431), venetoclax (NSC766270), copanlisib (NSC809693), apelisib (NSC765974), palbociblib (NSC758247), vemurafenib (NSC761431), dabrafenib (NSC764134), ravoxertinib (NSC781343), BMS-387032 (NSC767048), sotorasib (NSC818433), talazoparib (NSC767125) and afursertib (NSC778305), were obtained from the National Cancer Institute (NCI) Developmental Therapeutics Program Chemical Repository. The FDA-approved anticancer drug set is available from the NCI Developmental Therapeutics Program. […] The stock solutions were prepared in dimethyl sulfoxide (DMSO, Sigma-Aldrich, St. Louis, MO, cat. D2650) at 800-fold the tested concentration and stored at -70 degrees C prior to their use. All drugs and investigational agents were tested over a range starting from a high concentration at or near the clinical Cmax and decreasing in half-log increments. If the clinical Cmax for an agent had not been determined, the highest concentration tested was 10 microM.
NCI60 Cell Culture. NCI60 cell lines were obtained from the NCI Developmental Therapeutics Program Tumor Repository. For each lot of cells, the Repository performed Applied Biosystems AmpFLSTR Identifiler testing with PCR amplification to confirm consistency with the published Identifier STR profile for each cell line. Cells were kept in continuous culture for no more than 20 passages. The optimal seeding densities for each of the cell lines at each time point assessed were determined prior to performing the concentration response studies. Briefly, the NCI60 human tumor lines were grown as monolayers in RPMI 1640 medium supplemented with 10% FBS and 2 mmol/L L-glutamine.
An additional 9 lines were from the NCI60 cell line panel including MDA-MB-231 breast carcinoma, MDA-MB-468 breast carcinoma, MCF7 breast carcinoma, Hs578T breast carcinoma, MALME-3M melanoma, SK-MEL-2 melanoma, SK-OV-3 ovarian carcinoma, DU-145 prostate carcinoma, PC-3 prostate carcinoma, all cell lines along with major genetic alterations are listed on Table 2. Pooled donor human umbilical vein endothelial cells (HUVEC, Lonza, cat. CC-2519) and human mesenchymal stem cells (hMSC, Lonza, cat. PT-2501) were purchased from Lonza (Walkersville, MD).
PDMR cell lines were grown in complete medium (DC medium): Dulbecco's modified Eagle's medium (DMEM)/F12 supplemented with 5% fetal bovine serum (FBS), 2 mM L-glutamine, 100 U/mL penicillin and 100 µg/ml streptomycin, 0.4 µg/ml hydrocortisone, 10 ng/ml epidermal growth factor (EGF) recombinant human protein, 24 µg/mL adenine, and 0.1 mg/mL primocin. During culture from frozen stock vials, PDMR cells were cultured in the same medium containing 10 µM Y-27632 (see Table 3). The PDCs were cultured in complete DMEM/F12 media without 10 microM Y-27632 dihydrochloride for at least two passages prior to the screen. The pooled donor HUVEC and hMSC were cultured in endothelial cell growth medium 2 (PromoCell, Heidelberg, Germany, cat. C-22011) and mesenchymal stem cell growth medium 2 (PromoCell, cat. C-28009), respectively. For all experiments, HUVEC and hMSC were used at passages </=5.
[…]

[1] = second compound 0.1 µM, first compound 0.0316 µM
[2] = second compound 0.1 µM, first compound 0.1 µM
[3] = second compound 0.1 µM, first compound 0.316 µM
[4] = second compound 0.1 µM, first compound 1 µM
[5] = second compound 0.1 µM, first compound 3.16 µM
[6] = second compound 0.1 µM, first compound 10 µM
[7] = second compound 0.316 µM, first compound 0.0316 µM
[8] = second compound 0.316 µM, first compound 0.1 µM
[9] = second compound 0.316 µM, first compound 0.316 µM
[10] = second compound 0.316 µM, first compound 1 µM
[11] = second compound 0.316 µM, first compound 3.16 µM
[12] = second compound 0.316 µM, first compound 10 µM
[13] = second compound 1 µM, first compound 0.0316 µM
[14] = second compound 1 µM, first compound 0.1 µM
[15] = second compound 1 µM, first compound 0.316 µM
[16] = second compound 1 µM, first compound 1 µM
[17] = second compound 1 µM, first compound 3.16 µM
[18] = second compound 1 µM, first compound 10 µM
[19] = second compound 3.16 µM, first compound 0.0316 µM
[20] = second compound 3.16 µM, first compound 0.1 µM
[21] = second compound 3.16 µM, first compound 0.316 µM
[22] = second compound 3.16 µM, first compound 1 µM
[23] = second compound 3.16 µM, first compound 3.16 µM
[24] = second compound 3.16 µM, first compound 10 µM
[25] = second compound 10 µM, first compound 0.0316 µM
[26] = second compound 10 µM, first compound 0.1 µM
[27] = second compound 10 µM, first compound 0.316 µM
[28] = second compound 10 µM, first compound 1 µM
[29] = second compound 10 µM, first compound 3.16 µM
[30] = second compound 10 µM, first compound 10 µM
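Note: viability read after 7 days of drug exposure.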
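Throughout, for viability, T/C: 100% = DMSO vehicle control luminescence.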

| Compound | IC50 (second compound 0.1 µM) [µM] | IC50 (second compound 0.316 µM) [µM] | IC50 (second compound 1 µM) [µM] | IC50 (second compound 3.16 µM) [µM] | IC50 (second compound 10 µM) [µM] | viability, T/C [1] [%] | viability, T/C [2] [%] | viability, T/C [3] [%] | viability, T/C [4] [%] | viability, T/C [5] [%] | viability, T/C [6] [%] | viability, T/C [7] [%] | viability, T/C [8] [%] | viability, T/C [9] [%] | viability, T/C [13] [%] | viability, T/C [14] [%] | viability, T/C [19] [%] | viability, T/C [20] [%] | viability, T/C [25] [%] | viability, T/C [26] [%] | other results |
| --- | --- | --- | --- | --- | --- | --- | --- | --- | --- | --- | --- | --- | --- | --- | --- | --- | --- | --- | --- | --- | --- |
| C=CCn1c(=O)c2cnc(Nc3ccc(N4CCN(C)CC4)cc3)nc2n1-c1cccc(C(C)(C)O)n1 + CC(C)NCC(C(=O)N1CCN(c2ncnc3c2C(C)CC3O)CC1)c1ccc(Cl)cc1 | 0.479 | 0.803 | 0.626 | 1.05 | 0.646 | 80.7 | 78.5 | 52.1 | 44.6 | 34.6 | 33.4 | 75 | 73.1 | 53.3 | 69.6 | 84.6 | 79.1 | 83 | 72.8 | 76 | viability, T/C [10]: 50.5%; viability, T/C [11]: 36.2%; viability, T/C [12]: 23.6%; viability, T/C [15]: 65.2%; viability, T/C [16]: 37.8%; viability, T/C [17]: 37.6%; viability, T/C [18]: 20.2%; viability, T/C [21]: 59.1%; viability, T/C [22]: 50.8%; viability, T/C [23]: 36.9%; viability, T/C [24]: 19.5%; viability, T/C [27]: 51.7%; viability, T/C [28]: 49.1%; viability, T/C [29]: 31.9%; viability, T/C [30]: 26.8% |
| CC(C)n1nc(-c2ccc3oc(N)nc3c2)c2c(N)ncnc21 + CC(C)NCC(C(=O)N1CCN(c2ncnc3c2C(C)CC3O)CC1)c1ccc(Cl)cc1 | 0.0804 | > 0.1 | > 0.1 | 0.0271 | 0.0117 | 59.1 | 46.4 |  |  |  |  | 50.4 | 59.5 |  | 57.9 | 46.4 | 45.5 | 39.9 | 37 | 43 | viability, T/C (second compound 0.1 µM, first compound 0.000316 µM): 89%; viability, T/C (second compound 0.1 µM, first compound 0.001 µM): 99.4%; viability, T/C (second compound 0.1 µM, first compound 0.00316 µM): 76.8%; viability, T/C (second compound 0.1 µM, first compound 0.01 µM): 65.8%; viability, T/C (second compound 0.316 µM, first compound 0.000316 µM): 76%; viability, T/C (second compound 0.316 µM, first compound 0.001 µM): 76%; viability, T/C (second compound 0.316 µM, first compound 0.00316 µM): 87%; viability, T/C (second compound 0.316 µM, first compound 0.01 µM): 66.5%; viability, T/C (second compound 1 µM, first compound 0.000316 µM): 70.3%; viability, T/C (second compound 1 µM, first compound 0.001 µM): 81.3%; viability, T/C (second compound 1 µM, first compound 0.00316 µM): 76.6%; viability, T/C (second compound 1 µM, first compound 0.01 µM): 57%; viability, T/C (second compound 3.16 µM, first compound 0.000316 µM): 97.2%; viability, T/C (second compound 3.16 µM, first compound 0.001 µM): 71.7%; viability, T/C (second compound 3.16 µM, first compound 0.00316 µM): 73%; viability, T/C (second compound 3.16 µM, first compound 0.01 µM): 62.7%; viability, T/C (second compound 10 µM, first compound 0.000316 µM): 72.9%; viability, T/C (second compound 10 µM, first compound 0.001 µM): 72.2%; viability, T/C (second compound 10 µM, first compound 0.00316 µM): 63.9%; viability, T/C (second compound 10 µM, first compound 0.01 µM): 53.8% |
| CC1(C)CCC(CN2CCN(c3ccc(C(=O)NS(=O)(=O)c4ccc(NCC5CCOCC5)c([N+](=O)[O-])c4)c(Oc4cnc5[nH]ccc5c4)c3)CC2)=C(c2ccc(Cl)cc2)C1 + CC(C)NCC(C(=O)N1CCN(c2ncnc3c2C(C)CC3O)CC1)c1ccc(Cl)cc1 | 6.9 | 5.51 | 5.38 | 5.36 | 4.76 | 78.6 | 86.3 | 93.8 | 88.6 | 93.9 | 31.9 | 50 | 91.5 | 81.6 | 63.5 | 82.9 | 71.5 | 80.1 | 77.3 | 79.5 | viability, T/C [10]: 55.8%; viability, T/C [11]: 83.8%; viability, T/C [12]: 25.9%; viability, T/C [15]: 88.4%; viability, T/C [16]: 76.2%; viability, T/C [17]: 70.4%; viability, T/C [18]: 26.1%; viability, T/C [21]: 79.9%; viability, T/C [22]: 62.2%; viability, T/C [23]: 72.7%; viability, T/C [24]: 23.6%; viability, T/C [27]: 76.2%; viability, T/C [28]: 79.9%; viability, T/C [29]: 72.8%; viability, T/C [30]: 8.73% |
| CCCS(=O)(=O)Nc1ccc(F)c(C(=O)c2c[nH]c3ncc(-c4ccc(Cl)cc4)cc23)c1F + CC(C)NCC(C(=O)N1CCN(c2ncnc3c2C(C)CC3O)CC1)c1ccc(Cl)cc1 | > 10 | > 10 | > 10 | > 10 | > 10 | 100 | 119 | 111 | 137 | 162 | 147 | 77.1 | 90.5 | 94.5 | 77.3 | 78.6 | 88.3 | 82.5 | 88.3 | 64.1 | viability, T/C [10]: 114%; viability, T/C [11]: 127%; viability, T/C [12]: 140%; viability, T/C [15]: 88.3%; viability, T/C [16]: 115%; viability, T/C [17]: 124%; viability, T/C [18]: 82%; viability, T/C [21]: 93.8%; viability, T/C [22]: 102%; viability, T/C [23]: 82.9%; viability, T/C [24]: 77.5%; viability, T/C [27]: 77%; viability, T/C [28]: 84.9%; viability, T/C [29]: 70.3%; viability, T/C [30]: 57.7% |
